We go through 16 molecules from patent US20230416232A1, “PYRIMIDINE COMPOUNDS, COMPOSITIONS, AND MEDICINAL APPLICATIONS THEREOF” (Blueprint Medicines Corporation, priority 2020, published 2023).

Where a name gives a salt, the structure may show the parent alone. Some results are limits rather than exact numbers.

What all share (format): cell-based
The target in experiment [1] is EGFR(D770_N771insSVD) expressing Ba/F3 stable cell line (Homo sapiens, UniProt P00533, DUP768-770, cells depend on it). Description: Cellular proliferation (Alamar Blue) assay, EGFR(D770_N771insSVD) Ba/F3. The note with it: 72 hr, read-out: D770 IC50. Put shortly:
(§1)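 Compound treatment lasted 72 h at 37 °C across a final 10-0.0005 μM range in 3-fold steps; cell growth was measured with Alamar Blue (3 h). Ba/F3 seeded at 15,000 and A431 at 5000 cells/well.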
Background: The colour change of resazurin is a common sign of viable cells or microbes.

The test system of experiment [2] is A431 cells. Kind of experiment: Cellular proliferation (Alamar Blue) assay, A431 cells. The following applies: Homo sapiens, A-431, 72 h, A431 cells; 72 hr; Alamar Blue; read-out: A431 IC50. A digest of the protocol:
as §1

The target in experiment [3] is HER2 (A775_G776insYVMA) expressing Ba/F3 stable cell line (Homo sapiens, UniProt P04626, DUP772-775, cells depend on it). Description: Cellular proliferation (Alamar Blue) assay, HER2 (A775_G776insYVMA) Ba/F3. The following applies: HER2 (A775_G776insYVMA) Ba/F3 cells; 72 hr; Alamar Blue; read-out: YVMA IC50. A digest of the protocol: as §1
Chain of HER2 (A775_G776insYVMA) expressing Ba/F3 stable cell line (P04626 with tags, fused parts or gaps DUP772-775): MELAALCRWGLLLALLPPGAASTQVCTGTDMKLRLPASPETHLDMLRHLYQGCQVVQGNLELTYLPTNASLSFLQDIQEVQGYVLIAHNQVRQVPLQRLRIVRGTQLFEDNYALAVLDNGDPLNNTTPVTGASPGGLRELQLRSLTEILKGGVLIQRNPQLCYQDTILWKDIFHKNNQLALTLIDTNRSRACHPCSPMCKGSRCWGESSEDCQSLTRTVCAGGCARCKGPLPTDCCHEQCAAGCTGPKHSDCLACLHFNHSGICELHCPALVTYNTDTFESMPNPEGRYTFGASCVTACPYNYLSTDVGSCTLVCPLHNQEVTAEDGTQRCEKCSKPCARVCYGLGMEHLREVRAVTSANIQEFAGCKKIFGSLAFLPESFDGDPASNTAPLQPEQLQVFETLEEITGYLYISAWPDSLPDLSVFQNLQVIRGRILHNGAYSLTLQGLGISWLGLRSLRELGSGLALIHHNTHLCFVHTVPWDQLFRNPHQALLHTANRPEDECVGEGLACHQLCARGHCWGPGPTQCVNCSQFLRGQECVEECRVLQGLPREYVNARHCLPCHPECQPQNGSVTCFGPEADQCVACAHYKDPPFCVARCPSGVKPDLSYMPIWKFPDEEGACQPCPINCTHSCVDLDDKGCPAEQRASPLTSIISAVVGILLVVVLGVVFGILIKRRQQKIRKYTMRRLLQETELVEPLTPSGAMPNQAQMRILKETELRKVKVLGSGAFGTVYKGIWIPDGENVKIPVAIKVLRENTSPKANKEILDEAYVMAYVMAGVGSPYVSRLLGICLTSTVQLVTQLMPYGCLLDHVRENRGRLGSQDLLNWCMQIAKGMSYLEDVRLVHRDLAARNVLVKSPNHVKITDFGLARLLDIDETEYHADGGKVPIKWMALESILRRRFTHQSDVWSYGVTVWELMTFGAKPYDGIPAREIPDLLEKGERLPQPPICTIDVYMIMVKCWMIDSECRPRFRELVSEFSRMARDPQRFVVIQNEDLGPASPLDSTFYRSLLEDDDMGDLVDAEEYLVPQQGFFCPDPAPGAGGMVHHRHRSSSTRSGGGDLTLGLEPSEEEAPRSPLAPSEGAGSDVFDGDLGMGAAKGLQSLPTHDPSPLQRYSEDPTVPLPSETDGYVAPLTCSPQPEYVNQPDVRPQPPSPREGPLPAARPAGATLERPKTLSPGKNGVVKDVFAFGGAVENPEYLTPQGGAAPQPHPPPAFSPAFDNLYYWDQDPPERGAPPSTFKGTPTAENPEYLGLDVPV
Experiment [4] has as its target EGFR (H773insNPH) expressing Ba/F3 stable cell line (Homo sapiens, UniProt P00533, DUP771-773, cells depend on it). Kind of experiment: Cellular proliferation (Alamar Blue) assay, EGFR (H773insNPH) Ba/F3. The following applies: 72 hr, read-out: NPH IC50. As for the experimental part:
Cell line details: • 1. EGFR(D770_N771insSVD) expressing Ba/F3 stable cell line • 2. EGFR (A767_dupASV) expressing Ba/F3 stable cell line • 3. A431 cells • 4. EGFR (H773insNPH) expressing Ba/F3 stable cell line • 5. HER2 (A775_G776insYVMA) expressing Ba/F3 stable cell line
• 1. Seed cells at 5000 for A431 and 15,000 cells for Ba/F3 in 100 μL/well in complete media (for A431: DMEM with 10% FBS and for Ba/F3 cells: RPMI with 10% FBS) in 96-well tissue culture plate. Leave outer wells without cells for background measurements. Incubate at 37 degree Celsius in 5% CO2 humidified incubator for 16-18 hours. • 2. Add 0.025 ml of 5X concentration compound dilution or DMSO control. Final compound concentration range is 10-0.0005 μM prepared in 3-fold serial dilutions. Incubate for 72 hr at 37 degree Celsius in 5% CO2 humidified incubator. • 3. Add 0.0125 ml Alamar Blue™ reagent to each well with multi-channel pipette and tap gently on each side of the plate to mix. Incubate for 3 hours at 37 degree Celsius in 5% CO2 humidified incubator. • 4. […] Data analysis was performed using XLfit 5.5.0.5.

The target in experiment [5] is EGFR (A767_dupASV) expressing Ba/F3 stable cell line (Homo sapiens, UniProt P00533, DUP767-769, cells depend on it). Kind of experiment: Cellular proliferation (Alamar Blue) assay, EGFR (A767_dupASV) Ba/F3. The note with it: 72 hr, read-out: A767 IC50. Put shortly:
as §1

Chain of EGFR (H773insNPH) expressing Ba/F3 stable cell line (P00533 with tags, fused parts or gaps DUP771-773): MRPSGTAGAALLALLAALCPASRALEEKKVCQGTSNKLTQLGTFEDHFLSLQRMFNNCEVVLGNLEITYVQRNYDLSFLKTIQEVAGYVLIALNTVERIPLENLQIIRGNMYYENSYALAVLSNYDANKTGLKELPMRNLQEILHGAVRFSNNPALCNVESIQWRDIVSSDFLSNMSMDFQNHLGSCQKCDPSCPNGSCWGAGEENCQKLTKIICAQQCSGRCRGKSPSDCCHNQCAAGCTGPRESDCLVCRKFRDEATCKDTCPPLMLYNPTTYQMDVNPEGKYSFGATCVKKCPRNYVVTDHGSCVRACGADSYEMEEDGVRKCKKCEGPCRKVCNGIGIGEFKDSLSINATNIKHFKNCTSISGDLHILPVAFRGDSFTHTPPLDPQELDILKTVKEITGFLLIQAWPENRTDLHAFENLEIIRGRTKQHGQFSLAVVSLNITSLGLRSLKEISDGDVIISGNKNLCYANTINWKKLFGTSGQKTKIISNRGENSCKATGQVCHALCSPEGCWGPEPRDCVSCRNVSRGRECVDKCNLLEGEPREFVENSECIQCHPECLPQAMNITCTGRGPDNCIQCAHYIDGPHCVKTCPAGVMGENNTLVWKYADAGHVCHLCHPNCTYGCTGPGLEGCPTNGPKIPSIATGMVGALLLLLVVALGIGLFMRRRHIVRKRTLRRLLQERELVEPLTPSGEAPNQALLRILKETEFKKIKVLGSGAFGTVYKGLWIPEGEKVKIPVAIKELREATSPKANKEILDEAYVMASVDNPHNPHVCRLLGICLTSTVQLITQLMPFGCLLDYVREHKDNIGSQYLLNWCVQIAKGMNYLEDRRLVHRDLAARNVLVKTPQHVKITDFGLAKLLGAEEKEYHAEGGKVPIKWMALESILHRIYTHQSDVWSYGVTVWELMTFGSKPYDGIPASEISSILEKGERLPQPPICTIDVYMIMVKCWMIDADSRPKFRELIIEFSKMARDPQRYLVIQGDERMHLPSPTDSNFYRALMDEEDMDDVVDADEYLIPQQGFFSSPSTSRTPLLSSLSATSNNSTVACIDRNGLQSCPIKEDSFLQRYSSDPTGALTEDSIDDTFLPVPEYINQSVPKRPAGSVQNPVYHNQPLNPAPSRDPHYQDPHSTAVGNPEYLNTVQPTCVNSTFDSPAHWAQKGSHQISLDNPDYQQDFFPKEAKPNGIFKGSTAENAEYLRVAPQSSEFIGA
Chain of EGFR(D770_N771insSVD) expressing Ba/F3 stable cell line (P00533 with tags, fused parts or gaps DUP768-770): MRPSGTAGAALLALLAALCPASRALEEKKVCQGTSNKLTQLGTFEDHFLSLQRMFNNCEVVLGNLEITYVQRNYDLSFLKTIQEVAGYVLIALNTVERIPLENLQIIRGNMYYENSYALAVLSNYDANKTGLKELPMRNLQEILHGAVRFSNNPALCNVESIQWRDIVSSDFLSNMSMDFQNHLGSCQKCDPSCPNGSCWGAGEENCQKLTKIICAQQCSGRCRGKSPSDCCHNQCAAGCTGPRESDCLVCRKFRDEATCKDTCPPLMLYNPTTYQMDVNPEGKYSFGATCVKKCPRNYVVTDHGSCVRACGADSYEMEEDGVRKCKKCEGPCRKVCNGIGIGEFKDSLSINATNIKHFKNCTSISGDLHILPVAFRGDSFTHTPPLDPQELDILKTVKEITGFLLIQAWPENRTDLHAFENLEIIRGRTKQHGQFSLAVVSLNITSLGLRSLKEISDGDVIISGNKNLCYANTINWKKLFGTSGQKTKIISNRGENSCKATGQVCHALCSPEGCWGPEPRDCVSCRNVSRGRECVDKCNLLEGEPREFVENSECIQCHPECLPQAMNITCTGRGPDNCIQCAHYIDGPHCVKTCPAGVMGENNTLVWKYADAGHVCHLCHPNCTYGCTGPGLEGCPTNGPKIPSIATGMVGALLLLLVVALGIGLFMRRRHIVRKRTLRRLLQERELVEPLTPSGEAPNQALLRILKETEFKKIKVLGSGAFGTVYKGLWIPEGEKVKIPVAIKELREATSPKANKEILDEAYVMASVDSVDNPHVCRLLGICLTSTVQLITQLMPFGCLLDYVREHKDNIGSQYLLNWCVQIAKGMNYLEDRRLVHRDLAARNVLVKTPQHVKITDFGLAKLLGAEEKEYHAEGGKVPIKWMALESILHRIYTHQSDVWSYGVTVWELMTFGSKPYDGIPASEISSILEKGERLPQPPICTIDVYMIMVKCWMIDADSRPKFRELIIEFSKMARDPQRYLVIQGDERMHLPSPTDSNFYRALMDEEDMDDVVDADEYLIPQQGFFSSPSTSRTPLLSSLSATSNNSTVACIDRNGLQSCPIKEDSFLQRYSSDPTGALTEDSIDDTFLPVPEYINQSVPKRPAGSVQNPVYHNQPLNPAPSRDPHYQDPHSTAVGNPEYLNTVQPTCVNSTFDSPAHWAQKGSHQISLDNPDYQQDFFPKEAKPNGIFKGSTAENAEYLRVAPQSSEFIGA
Chain of EGFR (A767_dupASV) expressing Ba/F3 stable cell line (P00533 with tags, fused parts or gaps DUP767-769): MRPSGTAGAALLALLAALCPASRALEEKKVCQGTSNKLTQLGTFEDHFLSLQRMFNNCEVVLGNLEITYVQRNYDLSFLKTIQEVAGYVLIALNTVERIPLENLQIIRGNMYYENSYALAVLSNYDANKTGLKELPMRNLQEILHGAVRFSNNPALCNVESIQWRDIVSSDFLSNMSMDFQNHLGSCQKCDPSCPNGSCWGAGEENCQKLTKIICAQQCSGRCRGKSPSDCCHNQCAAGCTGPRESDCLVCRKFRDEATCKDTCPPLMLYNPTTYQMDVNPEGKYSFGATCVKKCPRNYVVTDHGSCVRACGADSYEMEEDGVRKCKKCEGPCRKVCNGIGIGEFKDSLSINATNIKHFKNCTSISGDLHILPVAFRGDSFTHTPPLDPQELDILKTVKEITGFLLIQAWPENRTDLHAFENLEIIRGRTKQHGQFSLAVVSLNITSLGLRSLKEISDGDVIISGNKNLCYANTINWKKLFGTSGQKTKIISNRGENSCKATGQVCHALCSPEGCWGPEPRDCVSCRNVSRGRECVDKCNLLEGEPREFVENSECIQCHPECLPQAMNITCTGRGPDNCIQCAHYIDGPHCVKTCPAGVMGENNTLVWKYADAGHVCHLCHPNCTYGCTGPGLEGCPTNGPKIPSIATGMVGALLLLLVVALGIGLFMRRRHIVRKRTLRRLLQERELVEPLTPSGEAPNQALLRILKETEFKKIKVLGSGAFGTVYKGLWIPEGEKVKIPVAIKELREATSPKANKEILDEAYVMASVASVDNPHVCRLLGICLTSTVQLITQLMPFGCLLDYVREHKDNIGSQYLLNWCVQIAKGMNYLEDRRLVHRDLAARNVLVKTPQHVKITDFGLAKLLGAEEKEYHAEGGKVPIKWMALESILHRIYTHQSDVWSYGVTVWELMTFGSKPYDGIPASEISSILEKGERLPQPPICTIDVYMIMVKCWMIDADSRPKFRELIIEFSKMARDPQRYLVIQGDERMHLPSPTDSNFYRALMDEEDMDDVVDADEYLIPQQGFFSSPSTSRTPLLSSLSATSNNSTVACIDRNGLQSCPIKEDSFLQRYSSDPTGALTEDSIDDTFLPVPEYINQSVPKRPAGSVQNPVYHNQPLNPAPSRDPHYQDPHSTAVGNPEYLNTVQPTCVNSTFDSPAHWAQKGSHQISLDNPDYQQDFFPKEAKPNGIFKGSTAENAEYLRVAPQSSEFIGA

Turning to `C=CC(=O)Nc1ccc(F)c(Nc2nc(Nc3cnn(C)c3)ncc2-c2ccc(C)c(F)c2)c1` [Compound 13, N-(4-fluoro-3-((5-(3-fluoro-4-methylphenyl)-2-((1-methyl-1H-pyrazol-4-yl)amino)pyrimidin-4-yl)amino)phenyl)acrylamide], the GI50 in experiment [1] was 28 nM; in experiment [3] it was 114 nM; in experiment [4], 79 nM; in experiment [5], 42 nM. The IC50 (commonly the concentration needed to halve the response being measured) in experiment [2] amounted to 147 nM.
In the same order, the values of `C=CC(=O)Nc1ccc(F)c(Nc2nc(Nc3cnn(C)c3)ncc2-c2cc(F)cc(C(F)F)c2)c1` [Compound 15, N-(3-((5-(3-(difluoromethyl)-5-fluorophenyl)-2-((1-methyl-1H-pyrazol-4-yl)amino)pyrimidin-4-yl)amino)-4-fluorophenyl)acrylamide] are 36 nM, 124 nM, 102 nM, 45 nM and 84 nM.
In the same order, the values of `C=CC(=O)Nc1ccc(F)c(Nc2nc(Nc3cnn(C)c3)ncc2-c2ccc(OC(F)F)c(F)c2)c1` [Compound 16, N-(3-((5-(4-(difluoromethoxy)-3-fluorophenyl)-2-((1-methyl-1H-pyrazol-4-yl)amino)pyrimidin-4-yl)amino)-4-fluorophenyl)acrylamide] are 10 nM, 43 nM, 24 nM, 9 nM and 460 nM.
In the same order, the values of `C=CC(=O)Nc1ccc(F)c(Nc2nc(Nc3cnn(C)c3)ncc2-c2cnc(Cl)c(Cl)c2)c1` [Compound 17, N-(3-((5-(5,6-dichloropyridin-3-yl)-2-((1-methyl-1H-pyrazol-4-yl)amino)pyrimidin-4-yl)amino)-4-fluorophenyl)acrylamide] are 35 nM, 42 nM, 96 nM, 32 nM and 75 nM.
As for `C=CC(=O)Nc1ccc(F)c(Nc2nc(Nc3cnn(C)c3)ncc2-c2ccc(F)c(Br)c2)c1` [Compound 18, N-(3-((5-(3-bromo-4-fluorophenyl)-2-((1-methyl-1H-pyrazol-4-yl)amino)pyrimidin-4-yl)amino)-4-fluorophenyl)acrylamide trifluoroacetate], the GI50 in experiment [1] was determined as 113 nM; in experiment [3], 220 nM; in experiment [4], 56 nM; in experiment [5], 166 nM. The IC50 in experiment [2] stood at 251 nM.
In the same order, the values of `C=CC(=O)Nc1ccc(F)c(Nc2nc(Nc3cnn(C)c3)ncc2-c2ccc(C(F)(F)F)cc2F)c1` [Compound 21, N-(4-fluoro-3-((5-(2-fluoro-4-(trifluoromethyl)phenyl)-2-((1-methyl-1H-pyrazol-4-yl)amino)pyrimidin-4-yl)amino)phenyl)acrylamide] are 107 nM, 1030 nM, 261 nM, 181 nM and > 10000 nM.
In the case of `C=CC(=O)Nc1ccc(F)c(Nc2nc(Nc3cnn(C)c3)ncc2-c2ccc(F)c(C(F)(F)F)c2)c1` [Compound 25, N-(4-fluoro-3-((5-(4-fluoro-3-(trifluoromethyl)phenyl)-2-((1-methyl-1H-pyrazol-4-yl)amino)pyrimidin-4-yl)amino)phenyl)acrylamide], the GI50 turned out to be 102 nM in experiment [1], 341 nM in experiment [3], 91 nM in experiment [4] and 87 nM in experiment [5]. Besides, the IC50 in experiment [2] stood at 49 nM.
As to `C=CC(=O)Nc1ccc(F)c(Nc2nc(Nc3cnn(C)c3)ncc2-c2cc(F)cc(F)c2)c1` [Compound 26, N-(3-((5-(3,5-difluorophenyl)-2-((1-methyl-1H-pyrazol-4-yl)amino)pyrimidin-4-yl)amino)-4-fluorophenyl)acrylamide], the GI50 in experiment [1] was determined as 27 nM; in experiment [3], 112 nM; in experiment [4] it was 31 nM; in experiment [5], 35 nM. For the same molecule, in experiment [2], the half-maximal inhibitory concentration (IC50) is 443 nM.
In the same order, the values of `C=CC(=O)Nc1ccc(F)c(Nc2nc(Nc3cnn(C)c3)ncc2-c2cc(F)cc(C(F)(F)F)c2)c1` [Compound 27, N-(4-fluoro-3-((5-(3-fluoro-5-(trifluoromethyl)phenyl)-2-((1-methyl-1H-pyrazol-4-yl)amino)pyrimidin-4-yl)amino)phenyl)acrylamide] are 35 nM, 150 nM, 55 nM, 31 nM and 73 nM.
On to `C=CC(=O)Nc1ccc(F)c(Nc2nc(Nc3cnn(C)c3)ncc2-c2ccc(N(C)C)c(F)c2)c1` [Compound 28, N-(3-((5-(4-(dimethylamino)-3-fluorophenyl)-2-((1-methyl-1H-pyrazol-4-yl)amino)pyrimidin-4-yl)amino)-4-fluorophenyl)acrylamide], for which the GI50 was determined as 29 nM in experiment [1], 271 nM in experiment [3], 47 nM in experiment [4] and 27 nM in experiment [5]. The IC50 in experiment [2] worked out at 193 nM.
Take `C=CC(=O)Nc1ccc(F)c(Nc2nc(Nc3cnn(C)c3)ncc2-c2cnc(OC)c(Cl)c2)c1` [Compound 31, N-(3-((5-(5-chloro-6-methoxypyridin-3-yl)-2-((1-methyl-1H-pyrazol-4-yl)amino)pyrimidin-4-yl)amino)-4-fluorophenyl)acrylamide trifluoroacetate]: the GI50 in experiment [1] came out at 50 nM; in experiment [3], 94 nM; in experiment [4], 92 nM; in experiment [5], 34 nM. Further, the IC50 in experiment [2] worked out at 582 nM.
In the same order, the values of `C=CC(=O)Nc1ccc(F)c(Nc2nc(Nc3cnn(C)c3)ncc2-c2cc(Cl)cc(Cl)c2)c1` [Compound 32, N-(3-((5-(3,5-dichlorophenyl)-2-((1-methyl-1H-pyrazol-4-yl)amino)pyrimidin-4-yl)amino)-4-fluorophenyl)acrylamide] are 294 nM, 1160 nM, 160 nM, 159 nM and > 10000 nM.
For the molecule `C=CC(=O)Nc1ccc(F)c(Nc2nc(Nc3cnn(C)c3)ncc2-c2ccc(Cl)c(F)c2)c1` [Compound 33, N-(3-((5-(4-chloro-3-fluorophenyl)-2-((1-methyl-1H-pyrazol-4-yl)amino)pyrimidin-4-yl)amino)-4-fluorophenyl)acrylamide], the GI50 in experiment [1] is 20 nM; in experiment [3] it was 73 nM; in experiment [4], 52 nM; in experiment [5] it was 21 nM. Also, in experiment [2], the half-inhibitory concentration (IC50) was 35 nM.
In the same order, the values of `C=CC(=O)Nc1ccc(F)c(Nc2nc(Nc3cnn(C)c3)ncc2-c2ccc(C(F)(F)F)c(F)c2)c1` [Compound 35, N-(4-fluoro-3-((5-(3-fluoro-4-(trifluoromethyl)phenyl)-2-((1-methyl-1H-pyrazol-4-yl)amino)pyrimidin-4-yl)amino)phenyl)acrylamide] are 35 nM, 99 nM, 84 nM, 99 nM and 45 nM.
In the case of `C=CC(=O)Nc1ccc(F)c(Nc2nc(Nc3cnn(C)c3)ncc2-c2ccc(C(F)F)c(F)c2)c1` [Compound 37, N-(3-((5-(4-(difluoromethyl)-3-fluorophenyl)-2-((1-methyl-1H-pyrazol-4-yl)amino)pyrimidin-4-yl)amino)-4-fluorophenyl)acrylamide], the GI50 is 30 nM in experiment [1], 93 nM in experiment [3], 51 nM in experiment [4] and 34 nM in experiment [5]. Moreover, in experiment [2], the IC50 turned out to be 51 nM.
For the molecule `C=CC(=O)Nc1cccc(Nc2nc(Nc3cnn(C)c3)ncc2-c2cc(F)cc(C(F)F)c2)c1` [Compound 43, N-(3-((5-(3-(difluoromethyl)-5-fluorophenyl)-2-((1-methyl-1H-pyrazol-4-yl)amino)pyrimidin-4-yl)amino)phenyl)acrylamide], the GI50 in experiment [1] turned out to be 35 nM; in experiment [3], 84 nM; in experiment [4], 24 nM; in experiment [5], 41 nM. Besides, the IC50 in experiment [2] was 707 nM.
